{"source": "patent US12371454B2", "about": "“Cyclic peptide compound having Kras inhibitory action” (priority 2019, dated 2025)", "note": "Starred links: 1 amine or outer side, 2 acyl side, 3 side chain; linkers in the order of their positions; H or OH if unused. Positions of bridges follow the written chain, without caps; N, C: chain ends. Non-standard residues stand in square brackets, D forms with d. Residues, ends and D or L forms follow the SMILES beside them. *: point of attachment. hPhe(3,5-F2-4-CF3) = N[C@@H](CCc1cc(F)c(C(F)(F)F)c(F)c1)C(=O)O; hPhe(3-Cl-4-CF3) = N[C@@H](CCc1ccc(C(F)(F)F)c(Cl)c1)C(=O)O; hPhe(3-F,4-CF3) = N[C@@H](CCc1ccc(C(F)(F)F)c(F)c1)C(=O)O; NMePhe(4-CF3) = CN[C@@H](Cc1ccc(C(F)(F)F)cc1)C(=O)O; Phe(2-F,5-Br) = N[C@@H](Cc1cc(Br)ccc1F)C(=O)O; NMePhe(4-Cl) = CN[C@@H](Cc1ccc(Cl)cc1)C(=O)O; NMePhe(4-Me) = CN[C@@H](Cc1ccc(C)cc1)C(=O)O; NMePhe(4-F) = CN[C@@H](Cc1ccc(F)cc1)C(=O)O; NMedβ3hAla = C[C@H](CC(=O)[*:2])N(C)[*:1]; Leu(4,5-dehydro) = C=C(C)C[C@H](N)C(=O)O; NMeAla(cPent) = CN[C@@H](CC1CCCC1)C(=O)O; NMeGly(cPent) = CN[C@H](C(=O)O)C1CCCC1; Phe(3-I) = N[C@@H](Cc1cccc(I)c1)C(=O)O; Phe(2-F) = N[C@@H](Cc1ccccc1F)C(=O)O; NMeY = CN[C@@H](Cc1ccc(O)cc1)C(=O)O; NMeCha = CN[C@@H](CC1CCCCC1)C(=O)O; NMeI = CC[C@H](C)[C@H](NC)C(=O)O; N(CH2CH2)2CF2 = FC1(F)CCN(*)CC1; NMeD = CN[C@@H](CC(=O)O)C(=O)O; NMeL = CN[C@@H](CC(C)C)C(=O)O; NMeV = CN[C@H](C(=O)O)C(C)C; NMeAbu = CC[C@H](NC)C(=O)O; Pip = O=C(O)[C@@H]1CCCCN1; Morpholide = C1CN(*)CCO1; NMeA = CN[C@@H](C)C(=O)O; NMeAib = CNC(C)(C)C(=O)O; Nle = CCCC[C@H](N)C(=O)O; Piperidide = C1CCN(*)CC1; Ac5c = NC1(C(=O)O)CCCC1; Aze = O=C(O)[C@@H]1CCN1; CF3 = FC(F)(F)*; Sar = CNCC(=O)O"}
{"biological_target": "T1, Kras and SOS1 (biotin-tagged human Kras loaded with GDP, His-tagged human SOS1) (Homo sapiens, UniProt P01116, G12D)", "T1 construct": "made in house; host or cells: E. coli (stated for Kras only)", "T1 sequence (P01116 1-188 isoform P01116-2 G12D)": "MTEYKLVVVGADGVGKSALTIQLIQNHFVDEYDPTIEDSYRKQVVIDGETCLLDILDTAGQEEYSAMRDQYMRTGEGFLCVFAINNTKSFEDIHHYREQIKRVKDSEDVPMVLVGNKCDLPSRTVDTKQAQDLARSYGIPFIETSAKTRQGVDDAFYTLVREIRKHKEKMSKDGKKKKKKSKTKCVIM", "assay": "Protein-protein interaction inhibition between Kras and SOS1 (KrasGl2D-SOS PPI) using AlphaScreen", "assay_type": "binding", "settings": "AlphaScreen; biotin-tagged human Kras loaded with GDP, His-tagged human SOS1; read-out: KRAS G12D-SOS PPI IC50", "outline": "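Energy transfer from nickel-chelate donor beads bound to His-SOS1 to streptavidin acceptor beads bound to biotin-Kras, expressed in E. coli and loaded with GDP after purification, was monitored. Donors were excited at 680 nm; singlet oxygen reaching acceptors gave emission read at 520-620 nm.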", "units": {"IC50": "µM"}}
{"smiles": "CC[C@H](C)[C@@H]1NC(=O)[C@H](CC(C)C)N(C)C(=O)C[C@@H](C(=O)N(C)C)N(C)C(=O)[C@H]([C@@H](C)CC)N(C)C(=O)C2(CCCC2)NC(=O)[C@H](Cc2ccc(OC(F)(F)F)cc2)N(C)C(=O)[C@H](CCc2ccc(C(F)(F)F)c(Cl)c2)NC(=O)CN(C)C(=O)[C@H](Cc2ccc(C)cc2)N(C)C(=O)[C@@H]2CCN2C(=O)[C@H](C)N(C)C1=O", "note": "[Compound 1902] ([NMeL]I[NMeA][Aze][NMePhe(4-Me)][Sar][hPhe(3-Cl-4-CF3)][NMeY](CF3)[Ac5c][NMeI][NMeD]-NMe2; lactam N-11)", "IC50": 0.054}
{"smiles": "CCCC[C@@H]1NC(=O)[C@H](Cc2cc(Br)ccc2F)NC(=O)CN(C)C(=O)[C@H](Cc2ccc(OC)cc2)N(C)C(=O)[C@@H]2CCN2C(=O)[C@H](C)N(C)C(=O)[C@H]([C@@H](C)CC)NC(=O)[C@H](CC)N(C)C(=O)C[C@@H](C(=O)N2CCCCC2)N(C)C(=O)[C@H](CC(C)C)NC(=O)C(C)(C)N(C)C1=O", "note": "[Compound 1177] ([NMeAbu]I[NMeA][Aze][NMeY](Me)[Sar][Phe(2-F,5-Br)][Nle][NMeAib]L[NMeD]-Piperidide; lactam N-11)", "IC50": 0.012}
{"smiles": "CC[C@H](C)[C@@H]1NC(=O)[C@@H]2CCCCN2C(=O)C[C@@H](C)N(C)C(=O)[C@H](CC(C)C)NC(=O)C(C)(C)N(C)C(=O)[C@H](CC(C)C)NC(=O)[C@H](CCc2ccc(C(F)(F)F)c(F)c2)NC(=O)CN(C)C(=O)[C@H](CC2CCCCC2)N(C)C(=O)CN(C)C(=O)CN(C)C1=O", "note": "[Compound 649] (cyclo(I[Sar][Sar][NMeCha][Sar][hPhe(3-F,4-CF3)]L[NMeAib]L[NMedβ3hAla][Pip]))", "IC50": 0.36}
{"smiles": "CC[C@H](C)[C@@H]1NC(=O)[C@H](CC(C)C)N(C)C(=O)C[C@@H](C(=O)N2CCOCC2)N(C)C(=O)[C@H](C2CCCC2)N(C)C(=O)C2(CCCC2)NC(=O)[C@H](CC(=O)N2CCC(F)(F)CC2)N(C)C(=O)[C@H](CCc2ccc(C(F)(F)F)c(Cl)c2)NC(=O)CN(C)C(=O)[C@H](CC2CCCCC2)N(C)C(=O)[C@@H]2CCN2C(=O)[C@H](C)N(C)C1=O", "note": "[Compound 105] ([NMeL]I[NMeA][Aze][NMeCha][Sar][hPhe(3-Cl-4-CF3)][NMeD](N(CH2CH2)2CF2)[Ac5c][NMeGly(cPent)][NMeD]-Morpholide; lactam N-11)", "IC50": 0.0053}
{"smiles": "CC[C@H](C)[C@@H]1NC(=O)[C@H](C)N(C)C(=O)C[C@@H](C(=O)N2CCCCC2)N(C)C(=O)[C@H](C(C)C)N(C)C(=O)C2(CCCC2)NC(=O)[C@@H]2CCCN2C(=O)[C@H](CCc2ccc(C(F)(F)F)c(Cl)c2)NC(=O)[C@H]2CCCN2C(=O)[C@H](Cc2ccc(F)cc2)N(C)C(=O)[C@@H]2CCCN2C(=O)CN(C)C1=O", "note": "[Compound 1725] ([NMeA]I[Sar]P[NMePhe(4-F)][dP][hPhe(3-Cl-4-CF3)]P[Ac5c][NMeV][NMeD]-Piperidide; lactam N-11)", "IC50": 0.023}
{"smiles": "CC[C@H](C)[C@@H]1NC(=O)[C@H](CC(C)C)N(C)C(=O)C[C@@H](C(=O)N2CCCCC2)N(C)C(=O)[C@H](CC(C)C)NC(=O)C(C)(C)N(C)C(=O)[C@H](Cc2ccccc2F)NC(=O)[C@H](Cc2cccc(I)c2)NC(=O)CN(C)C(=O)[C@H](Cc2ccc(C)cc2)N(C)C(=O)[C@@H]2CCN2C(=O)CN(C)C1=O", "note": "[Compound 638] ([NMeL]I[Sar][Aze][NMePhe(4-Me)][Sar][Phe(3-I)][Phe(2-F)][NMeAib]L[NMeD]-Piperidide; lactam N-11)", "IC50": 0.045}
{"smiles": "CC[C@H](C)[C@@H]1NC(=O)[C@H](C)N(C)C(=O)C[C@@H](C(=O)N(C)C)N(C)C(=O)[C@H]([C@@H](C)CC)N(C)C(=O)C2(CCCC2)NC(=O)[C@H](Cc2ccc(F)cc2)N(C)C(=O)[C@H](CCc2cc(F)c(C(F)(F)F)c(F)c2)NC(=O)CN(C)C(=O)[C@H](Cc2ccc(C(F)(F)F)cc2)N(C)C(=O)[C@@H]2CCN2C(=O)[C@H](C)N(C)C1=O", "note": "[Compound 1986] ([NMeA]I[NMeA][Aze][NMePhe(4-CF3)][Sar][hPhe(3,5-F2-4-CF3)][NMePhe(4-F)][Ac5c][NMeI][NMeD]-NMe2; lactam N-11)", "IC50": 0.011}
{"smiles": "CC[C@H](C)[C@@H]1NC(=O)[C@H](CC(C)C)N(C)C(=O)C[C@@H](C(=O)N2CCCCC2)N(C)C(=O)[C@H](CC(C)C)NC(=O)C(C)(C)N(C)C(=O)[C@H](CC(C)C)NC(=O)[C@H](Cc2cccc(I)c2)NC(=O)CN(C)C(=O)[C@H](Cc2ccc(Cl)cc2)N(C)C(=O)CN(C)C(=O)CN(C)C1=O", "note": "[Compound 295] ([NMeL]I[Sar][Sar][NMePhe(4-Cl)][Sar][Phe(3-I)]L[NMeAib]L[NMeD]-Piperidide; lactam N-11)", "IC50": 0.068}
{"smiles": "C=C(C)C[C@@H]1NC(=O)[C@H](Cc2cccc(I)c2)NC(=O)CN(C)C(=O)[C@H](CC2CCCC2)N(C)C(=O)[C@@H]2CCN2C(=O)[C@H](C)N(C)C(=O)[C@H]([C@@H](C)CC)NC(=O)[C@H](CC(C)C)N(C)C(=O)C[C@@H](C(=O)N2CCCCC2)N(C)C(=O)[C@H](CC(C)C)NC(=O)C(C)(C)N(C)C1=O", "note": "[Compound 1405] ([NMeL]I[NMeA][Aze][NMeAla(cPent)][Sar][Phe(3-I)][Leu(4,5-dehydro)][NMeAib]L[NMeD]-Piperidide; lactam N-11)", "IC50": 0.082}
